Laboratory results as given in ChEMBL document CHEMBL3797052 (Eur J Med Chem, 2016).

Legend:
SK-MEL-5 = test: Antiproliferative activity against human SK-MEL-5 cells assessed as cell growth at 10^-7 M after 48 hrs by sulforhodamine B assay; format: functional; conditions: SK-MEL-5, 48 h, read-out: Activity
U-251 = test: Antiproliferative activity against human U251 cells assessed as cell growth at 10^-5 M after 48 hrs by sulforhodamine B assay; format: functional; conditions: U-251, 48 h, read-out: Activity
[1] = Antiproliferative activity against human HOP62 cells assessed as cell growth at 10^-5 M after 48 hrs by sulforhodamine B assay; format: functional; conditions: HOP-62, 48 h, read-out: Activity
[2] = Antiproliferative activity against human OVCAR3 cells assessed as cell growth at 10^-5 M after 48 hrs by sulforhodamine B assay; format: functional; conditions: OVCAR-3, 48 h, read-out: Activity
[3] = Antiproliferative activity against human COLO205 cells assessed as cell growth at 10^-5 M after 48 hrs by sulforhodamine B assay; format: functional; conditions: COLO 205, 48 h, read-out: Activity
K562 = test: Antiproliferative activity against human K562 cells assessed as cell growth at 10^-5 M after 48 hrs by sulforhodamine B assay; format: functional; conditions: K562, 48 h, read-out: Activity
T47D = test: Antiproliferative activity against human T47D cells assessed as cell growth at 10^-5 M after 48 hrs by sulforhodamine B assay; format: functional; conditions: read-out: Activity
HT-29 [4] = test: Antiproliferative activity against human HT-29 cells assessed as cell growth at 10^-6 M after 48 hrs by sulforhodamine B assay; format: functional; conditions: HT-29, 48 h, read-out: Activity
[5] = Antiproliferative activity against human SNB75 cells assessed as cell growth at 10^-8 M after 48 hrs by sulforhodamine B assay; format: functional; conditions: SNB-75, 48 h, read-out: Activity
NCI-H522 = test: Antiproliferative activity against human NCI-H522 cells assessed as cell growth at 10^-5 M after 48 hrs by sulforhodamine B assay; format: functional; conditions: NCI-H522, 48 h, read-out: Activity
[6] = Antiproliferative activity against human HCC2998 cells assessed as cell growth at 10^-5 M after 48 hrs by sulforhodamine B assay; format: functional; conditions: HCC 2998, 48 h, read-out: Activity
[7] = Antiproliferative activity against human Hs 578T cells assessed as cell growth at 10^-7 M after 48 hrs by sulforhodamine B assay; format: functional; conditions: read-out: Activity
CCRF-CEM = test: Antiproliferative activity against human CCRF-CEM cells assessed as cell growth at 10^-5 M after 48 hrs by sulforhodamine B assay; format: functional; conditions: read-out: Activity
[8] = Antiproliferative activity against human LOXIMVI cells assessed as cell growth at 10^-5 M after 48 hrs by sulforhodamine B assay; format: functional; conditions: LOX IMVI, read-out: Activity
MDA-MB-435 = test: Antiproliferative activity against human MDA-MB-435 cells assessed as cell growth at 10^-5 M after 48 hrs by sulforhodamine B assay; format: functional; conditions: MDA-MB-435, 48 h, read-out: Activity
[9] = Antiproliferative activity against human UACC62 cells assessed as cell growth at 10^-5 M after 48 hrs by sulforhodamine B assay; format: functional; conditions: UACC-62, 48 h, read-out: Activity
A549 = test: Antiproliferative activity against human A549/ATCC cells assessed as cell growth at 10^-5 M after 48 hrs by sulforhodamine B assay; format: functional; conditions: A549, 48 h, read-out: Activity
[10] = tested on: Serine/threonine-protein kinase B-raf (Homo sapiens), P15056 [V600E]; test: Inhibition of BRAF V600E mutant (unknown origin) at 10 uM measured after 40 mins by scintillation counting
Serine/threonine-protein kinase B-raf (Homo sapiens), P15056 [V600E], sequence (P15056 whole entry V600E): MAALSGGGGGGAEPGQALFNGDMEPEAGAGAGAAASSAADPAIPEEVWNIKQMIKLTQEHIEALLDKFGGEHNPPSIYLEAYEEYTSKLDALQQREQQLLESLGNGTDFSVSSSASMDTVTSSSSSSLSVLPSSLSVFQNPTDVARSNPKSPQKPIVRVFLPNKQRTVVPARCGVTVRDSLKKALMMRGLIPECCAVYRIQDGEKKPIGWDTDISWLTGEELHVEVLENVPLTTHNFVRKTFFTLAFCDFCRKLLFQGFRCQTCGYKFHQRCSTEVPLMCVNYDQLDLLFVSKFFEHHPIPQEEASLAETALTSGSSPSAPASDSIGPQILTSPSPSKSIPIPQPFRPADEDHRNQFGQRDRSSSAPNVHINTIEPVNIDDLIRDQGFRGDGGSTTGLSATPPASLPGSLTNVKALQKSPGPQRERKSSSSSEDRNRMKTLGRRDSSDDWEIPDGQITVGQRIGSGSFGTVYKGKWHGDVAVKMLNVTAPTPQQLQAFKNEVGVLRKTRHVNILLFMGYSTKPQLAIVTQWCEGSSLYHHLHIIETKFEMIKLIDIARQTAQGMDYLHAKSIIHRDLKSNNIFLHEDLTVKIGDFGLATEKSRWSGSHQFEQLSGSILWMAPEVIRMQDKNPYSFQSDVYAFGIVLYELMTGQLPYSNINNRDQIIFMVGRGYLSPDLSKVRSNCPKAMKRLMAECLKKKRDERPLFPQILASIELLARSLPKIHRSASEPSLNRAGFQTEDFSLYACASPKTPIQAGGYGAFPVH

[11] = Antiproliferative activity against human PC3 cells assessed as cell growth at 10^-5 M after 48 hrs by sulforhodamine B assay; format: functional; conditions: PC-3, 48 h, read-out: Activity
[12] = Antiproliferative activity against human SKOV3 cells assessed as cell growth at 10^-5 M after 48 hrs by sulforhodamine B assay; format: functional; conditions: SK-OV-3, 48 h, read-out: Activity
[13] = Antiproliferative activity against human OVCAR8 cells assessed as cell growth at 10^-5 M after 48 hrs by sulforhodamine B assay; format: functional; conditions: OVCAR-8, 48 h, read-out: Activity
NCI-H460 = test: Antiproliferative activity against human NCI-H460 cells assessed as cell growth at 10^-5 M after 48 hrs by sulforhodamine B assay; format: functional; conditions: NCI-H460, 48 h, read-out: Activity
SK-MEL-2 = test: Antiproliferative activity against human SK-MEL-2 cells assessed as cell growth at 10^-5 M after 48 hrs by sulforhodamine B assay; format: functional; conditions: SK-MEL-2, 48 h, read-out: Activity
[14] = Antiproliferative activity against human SF268 cells assessed as cell growth at 10^-4 M after 48 hrs by sulforhodamine B assay; format: functional; conditions: SF-268, 48 h, read-out: Activity
[15] = Antiproliferative activity against human TK10 cells assessed as cell growth at 10^-5 M after 48 hrs by sulforhodamine B assay; format: functional; conditions: TK-10, 48 h, read-out: Activity
Malme-3M = test: Antiproliferative activity against human MALME-3M cells assessed as cell growth at 10^-8 M after 48 hrs by sulforhodamine B assay; format: functional; conditions: read-out: Activity
MDA-MB-231 = test: Antiproliferative activity against human MDA-MB-231 cells assessed as cell growth at 10^-5 M after 48 hrs by sulforhodamine B assay; format: functional; conditions: MDA-MB-231, 48 h, read-out: Activity
[16] = Antiproliferative activity against human RPMI8226 cells assessed as cell growth at 10^-5 M after 48 hrs by sulforhodamine B assay; format: functional; conditions: RPMI-8226, 48 h, read-out: Activity
[17] = Antiproliferative activity against human UACC62 cells assessed as growth inhibition after 48 hrs by sulforhodamine B assay; format: functional; conditions: UACC-62, 48 h; for CC50: read-out: LC50 (the source's name)
[18] = Antiproliferative activity against human SF295 cells assessed as growth inhibition after 48 hrs by sulforhodamine B assay; format: functional; conditions: SF-295, 48 h; for CC50: read-out: LC50 (the source's name)
[19] = Antiproliferative activity against human OVCAR4 cells assessed as cell growth at 10^-5 M after 48 hrs by sulforhodamine B assay; format: functional; conditions: OVCAR-4, 48 h, read-out: Activity
[20] = Antiproliferative activity against human UO31 cells assessed as cell growth at 10^-5 M after 48 hrs by sulforhodamine B assay; format: functional; conditions: UO-31, 48 h, read-out: Activity
[21] = Antiproliferative activity against human HL-60(TB) cells assessed as cell growth at 10^-5 M after 48 hrs by sulforhodamine B assay; format: functional; conditions: HL-60, 48 h, read-out: Activity
HT-29 [22] = test: Antiproliferative activity against human HT-29 cells assessed as cell growth at 10^-5 M after 48 hrs by sulforhodamine B assay; format: functional; conditions: HT-29, 48 h, read-out: Activity
[23] = Antiproliferative activity against human NCI-ADR-RES cells assessed as cell growth at 10^-5 M after 48 hrs by sulforhodamine B assay; format: functional; conditions: read-out: Activity
[24] = Antiproliferative activity against human MOLT4 cells assessed as cell growth at 10^-7 M after 48 hrs by sulforhodamine B assay; format: functional; conditions: MOLT-4, 48 h, read-out: Activity

SMILES	growth at 10 µM (U-251)	growth at 10 µM [1]	growth at 10 µM [2]	growth at 10 µM [3]	growth at 10 µM (K562)	growth at 10 µM (T47D)	growth at 10 µM (NCI-H522)	growth at 10 µM [6]	growth at 10 µM (CCRF-CEM)	growth at 10 µM [8]	growth at 10 µM (MDA-MB-435)	growth at 10 µM [9]	growth at 10 µM (A549)	growth at 10 µM [11]	growth at 10 µM [12]	growth at 10 µM [13]	growth at 10 µM (NCI-H460)	growth at 10 µM (SK-MEL-2)	growth at 10 µM [15]	growth at 10 µM (MDA-MB-231)	other results
CNC(=O)c1cc(Oc2ccc3nc(NC(=O)Nc4cc(C(F)(F)F)cc(C(F)(F)F)c4)sc3c2)ccn1	-98%	-72%	-93%	-79%	-20%	-56%	-58%	-64%	-16%	-93%	-69%	-77%	-91%	-65%	-71%	-93%	-75%	-53%	-79%	-64%	growth at 0.1 µM (SK-MEL-5): 99%; growth at 1 µM (HT-29 [4]): 61%; growth at 0.01 µM [5]: 77%; growth at 0.1 µM [7]: 100%; inhibition [10]: 49.9%; growth at 100 µM [14]: -91%; growth at 0.01 µM (Malme-3M): 96%; growth at 10 µM [16]: -37%; GI50 [17]: 0.583 µM; TGI [17]: 2.1 µM; CC50 [17]: 5.77 µM; GI50 [18]: 1.08 µM; TGI [18]: 2.41 µM; CC50 [18]: 5.38 µM; growth at 10 µM [19]: -64%; growth at 10 µM [20]: -87%; growth at 10 µM [21]: -46%; growth at 10 µM (HT-29 [22]): -80%; growth at 10 µM [23]: -62%
CNC(=O)c1cc(Oc2ccc3nc(NC(=O)Nc4ccc(C(F)(F)F)cc4)sc3c2)ccn1	22.4%	67.3%	24%	58.8%	76.3%	44.8%	42.4%	104%	68.1%	48.1%	40.9%	56%	1.79%	58.8%	105%	48.5%	33.4%	92.9%	55.3%	63.5%	growth at 10 µM [16]: 70.4%; growth at 10 µM [19]: 37.7%; growth at 10 µM [20]: 65%; growth at 10 µM [21]: 120%; growth at 10 µM (HT-29 [22]): 78.4%; growth at 10 µM [23]: 58.4%
CNC(=O)c1cc(Oc2ccc3nc(NC(=O)c4cc(C(F)(F)F)cc(C(F)(F)F)c4)sc3c2)ccn1	12%	2%	-19%	-9%	7%	-4%	-6%	39%	13%	11%	7%	5%	13%	5%	-10%	8%	14%	-19%	8%	-25%	growth at 0.1 µM (SK-MEL-5): 96%; growth at 1 µM (HT-29 [4]): 100%; growth at 0.01 µM [5]: 82%; growth at 0.1 µM [7]: 93%; growth at 0.1 µM [24]: 87%; growth at 100 µM [14]: -37%; growth at 0.01 µM (Malme-3M): 94%; growth at 10 µM [16]: 10%; GI50 [17]: 2.71 µM; TGI [17]: 12.1 µM; CC50 [17]: 80.5 µM; GI50 [18]: 2.56 µM; TGI [18]: 10.5 µM; CC50 [18]: 49.6 µM; growth at 10 µM [19]: 10%; growth at 10 µM [20]: -4%; growth at 10 µM [21]: -47%; growth at 10 µM (HT-29 [22]): 15%; growth at 10 µM [23]: 15%
CNC(=O)c1cc(Oc2ccc3nc(NC(=O)c4ccc(Cl)c(C(F)(F)F)c4)sc3c2)ccn1	59.2%	83.7%	66.4%	80.4%	69.9%	64.8%	57.3%	74.8%	68.4%	71.2%	80.4%	81.1%	71.7%	62.7%	85.3%	57.2%	56.4%	96.5%	92.8%	75.3%	growth at 10 µM [16]: 64.8%; growth at 10 µM [19]: 36.7%; growth at 10 µM [20]: 80.4%; growth at 10 µM [21]: 89.4%; growth at 10 µM (HT-29 [22]): 68.1%; growth at 10 µM [23]: 64.9%
